Measured values reported in PubChem BioAssay (NCI).
“And” between values parts separate entries of the source, which are not always exact repeats. Equal values may be shown once.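 Cells were grown in 96-well plates and exposed to each compound for 48 hours at five concentrations; endpoints were interpolated linearly between bracketing concentrations, or set to the highest concentration if not reached. Abbreviation: GI50, concentration required for 50% inhibition of growth. Definition used: TGI = concentration required for complete inhibition of growth.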

Experiments:
Assay in all cases: NCI tumour cell line growth inhibition, 48 h
[1] = test system: A549 NSCLC
[2] = test system: K-562 leukemia
[3] = test system: LOX IMVI melanoma
[4] = test system: OVCAR-5 ovarian
[5] = test system: ACHN renal
[6] = test system: MALME-3M melanoma
[7] = test system: HCT-116 colon
[8] = test system: RPMI-8226 leukemia
[9] = test system: SNB-19 CNS
[10] = test system: OVCAR-3 ovarian

| Compound | TGI [1] [µM] | TGI [2] [µM] | TGI [3] | TGI [4] | TGI [5] [µM] | TGI [6] [µM] | TGI [7] | TGI [8] [µM] | TGI [9] | TGI [10] [µM] | GI50 [1] [µM] | GI50 [2] [µM] | GI50 [3] [µM] | GI50 [4] [µM] | GI50 [6] [µM] | GI50 [8] [µM] | GI50 [9] [µM] | GI50 [10] [µM] | GI50 [5] [µM] | GI50 [7] [µM] |
| --- | --- | --- | --- | --- | --- | --- | --- | --- | --- | --- | --- | --- | --- | --- | --- | --- | --- | --- | --- | --- |
| O=C(O)c1ccc2c(c1)C(=O)N(c1ccc(S(=O)(=O)c3ccc(N4C(=O)c5ccc(C(=O)O)cc5C4=O)cc3)cc1)C2=O | > 100 | > 100 | > 100 µM | > 100 µM | > 100 | > 100 | > 100 µM | > 100 | > 100 µM | > 100 | – | – | – | – | – | – | – | – | – | – |
| COc1cccc2c1C(=O)c1c(O)c3c(c(O)c1C2=O)C[C@@](O)(C(=O)CO)CC3OC1CC(N)C(OC2CCCCO2)C(C)O1 (stereo not given in full) | 1.15 | 6.58 | 1 µM and 1.62 µM | 2.08 µM and 8.5 µM | 0.029 | – | 1.16 µM and 3.31 µM | – | 2.54 µM and 3.06 µM | – | 0.00469 | 0.0247 | 0.0184 | 0.0682 | 0.00377 | 0.00394 | 0.033 | 0.0709 | – | – |
| COc1ccc(CN2C(=O)[C@@H]3Cc4c(OC)c(C)c(OC)c(OC)c4[C@H](/C2=C\c2cc(OC)c(OC)c(C)c2OC)N3C(=O)OC(C)C)cc1 | > 100 | > 100 | > 100 µM | > 100 µM | > 100 | > 100 | > 100 µM | > 100 | > 100 µM | > 100 | – | – | – | – | – | – | – | – | – | – |
| Cc1ccccc1NC(=O)/C(=N\NC(N)=S)C(C#N)c1ccccc1 (stereo not given) | > 100 | > 100 | > 100 µM | > 100 µM | > 100 | > 100 | > 100 µM | > 100 | > 100 µM | > 100 | – | – | – | – | – | – | – | – | – | – |
| CC1=CC(=O)N(c2cccc3c(N4C(=O)C=C(C)C4=O)cccc23)C1=O | > 100 | 9.45 | 5.56 µM | 26.3 µM | 11 | 9.33 | 4.16 µM | 19 | > 100 µM | 5.9 | 32.5 | 1.9 | 1.8 | 8.35 | 3.13 | 3.71 | 53.3 | 1.54 | 2.78 | 1.79 |
| C/C(=N\NC(=O)c1ccncc1)c1sc(-n2nc(-c3ccccc3)cc2-c2ccccc2)nc1C | > 31.6 | > 100 | > 100 µM | > 31.6 µM | > 31.6 | > 100 | > 31.6 µM | > 31.6 | > 31.6 µM | > 31.6 | – | – | – | – | – | – | – | – | – | – |
| N#C/C(=C\c1cc(O)c(O)c(O)c1)C(N)=O | > 100 | > 100 | > 65.6 µM | > 100 µM | > 100 | > 100 | > 100 µM | > 100 | > 100 µM | > 100 | – | – | – | – | – | – | – | – | – | – |
| C/C=C(\N=C=S)C(=O)OC1C(COC(C)=O)OC([C@]2(O)CC(=O)C(=N)C(C(=O)O)=C2O)C(O)C1OC1CC(OC)C(O)([C@@H](C)OC(=O)[C@@H](C)CC)C(C)O1 (stereo not given in full) | > 80.6 | 14.6 | 17.2 µM | 40.4 µM | 33.1 | 22.8 | 21.9 µM | 7.19 | 31.5 µM | 35.7 | – | – | – | – | – | – | – | – | – | – |
| NS(=O)(=O)c1ccc(N=Nc2ccc[nH]c2=O)cc1 | > 100 | > 100 | > 100 µM | > 100 µM | > 100 | > 100 | > 100 µM | > 100 | > 100 µM | > 100 | – | – | – | – | – | – | – | – | – | – |
| CN(C)NC(=O)/C(=C/c1ccc(Cl)cc1)NC(=O)c1ccccc1 | > 100 | > 100 | > 100 µM | > 100 µM | > 100 | > 100 | > 100 µM | > 100 | > 100 µM | > 100 | – | – | – | – | – | – | – | – | – | – |
| CC1(C)C(N2CCOCC2)CS1(=O)=O (stereo not given) | > 10 | > 10 | > 10 µM | > 10 µM | > 10 | > 10 | > 10 µM | > 10 | > 10 µM | > 10 | – | – | – | – | – | – | – | – | – | – |
| COc1ccc2c(c1)C(=Nc1ccc(F)c(Cl)c1)c1c-2c(Nc2ccc(F)c(Cl)c2)nc2ccccc12 | > 100 | 37 | > 100 µM | > 100 µM | > 70.8 | > 100 | > 100 µM | > 100 | > 100 µM | > 100 | > 74 | 4.19 | 51.8 | > 76.6 | > 100 | > 60.4 | 44.8 | 42.7 | 24.1 | 27.8 |
| CC1(C)c2ccccc2N2C(c3ccccc3)=NOC21C (stereo not given) | > 100 | > 100 | > 100 µM | > 100 µM | > 100 | > 100 | > 100 µM | > 100 | > 100 µM | > 100 | – | – | – | – | – | – | – | – | – | – |
